# Where two headings read alike, the source gives them in different places.
# Legend:
# [1] = target: T1, TNKS2 ARC4 (Homo sapiens, UniProt Q9H2K2); assay: FRET displacement of YFP-REAGDGEE peptide from CFP-ARC; type: binding
# T1 construct: ankyrin repeat cluster 4 domain; FRET: 6xHis-mCerulean (CFP) fusion; DSF, NMR, crystal: MBP and His tag cleaved by TEV, residues 487-649 printed for crystal; E. coli BL21(DE3)
# T1 sequence (Q9H2K2 487-649): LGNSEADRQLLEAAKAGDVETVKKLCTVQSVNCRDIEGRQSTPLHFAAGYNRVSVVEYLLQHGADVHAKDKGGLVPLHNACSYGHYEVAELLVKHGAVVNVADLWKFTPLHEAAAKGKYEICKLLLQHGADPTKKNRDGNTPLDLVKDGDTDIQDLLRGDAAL
# [2] = target: T1, TNKS2 ARC4; parameters: DSF thermal shift of TNKS2 ARC4, stabilization over DMSO control; conditions: binder
# From the text: Given the notable stabilization of the pyrrolone-based compounds from the Commercials Diversity collection, we decided to focus on their common scaffold for compound optimization. Pyrrolone is indeed a versatile moiety that is largely employed for the design of compounds with a variety of biological effects.[55] The nine primary hits were acquired from commercial suppliers, they underwent quality control, additional DSF validation and determination of potency through FRET-based IC50 measurements (Table 1). All the tested compounds include a benzodioxane moiety (R[1]), a [compound left out] group with substitutions in the para position (R[2]), and an R[3] group with an aliphatic character and a tertiary amine. […] In addition, all molecules, except for 7, have IC50 values below 100 µM. Among the nine molecules, 1 performed the best in terms of stabilization of TNKS2 ARC4 and potency. […] In the same position, the presence of a hydrophobic methyl group (3, 4), other halogen substituents (5) and alkoxy groups (6–9) is also tolerated, even if not optimal. […] A SAR investigation was conducted with purchased and synthesized analogues of 1 through FRET-based potency measurements and DSF assay with TNKS2 ARC4 (Table 2, Table S2). All the compounds commercially acquired underwent quality control. […] Changes to the length of the aliphatic chain at R[3] greatly impacts both potency and protein stabilization. […] The diethylamino-based substituent at R[3] […] Compounds 25 and 26 further indicate that the presence of tertiary amine at R[3] is not necessary to achieve binding. […] 5 Figure S2. DSF assay results for validation of primary hits identified in the EU-OPENSCREEN Commercials Diversity Library. (A) and (B) show DSF assay validation measurements of TNKS2 ARC4 with primary hits from the Commercial Diversity Library. Compounds are tested at 100 μM. They are named after their EU-OPENSCREEN identity codes and the identities are available for consultation on ECBD. 1,2 (A) and (B) show results from two independent experiments. For each experiment, each compound was tested with a single measurement, while controls (TNKS2 ARC4 with 100 μM optimized peptide, TNKS2 ARC4 with 100 μM DMSO) are studied in at least four replicates and errors are shown. Moreover, stabilization over the control (TNKS2 ARC4 with DMSO) is indicated (ΔTm °C). […] It was not possible to measure the melting curve of TNKS2 ARC4 in presence of EOS21552, EOS54043, EOS54043.
Compound,IC50 [1],ΔTm ± SD (°C) [2],"IC50 ([1]; pH 7, 100 nM CFP-ARC, 200 nM YFP-peptide, TBM pocket)"
COc1cccc(C2C(C(=O)c3ccc4c(c3)OCCO4)=C(O)C(=O)N2CCCNC(=N)N)c1 (stereo not drawn) [S4],142 µM,1.10 ± 0.12 °C,–
CCN(CC)CCCN1C(=O)C(O)=C(C(=O)c2ccc3ccccc3c2)C1c1ccc(O)cc1 (stereo not drawn) [S6],> 1000 µM,-0.06 ± 0.04 °C,–
CCN(CC)CCCN1C(=O)C(O)=C(C(=O)c2ccc(OC)c(OC)c2)C1c1ccc(O)cc1 (stereo not drawn) [S7],> 1000 µM,0.04 ± 0.03 °C,–
CCN(CC)CCCN1C(=O)C(O)=C(C(=O)c2ccc3c(c2)OCCO3)C1c1ccc(N)cc1 (stereo not drawn) [S9],17 µM,2.78 ± 0.18 °C,–
CCN(CC)CCCN1C(=O)C(O)=C(C(=O)c2ccc(OC)c(OC)c2)C1c1ccccc1 (stereo not drawn) [S10],–,-0.28 ± 0.35 °C,–
CCN(CC)CCCN1C(=O)C(O)=C(C(=O)c2ccc(OC)c(OC)c2)C1c1cccc(O)c1 (stereo not drawn) [S11],–,0.08 ± 0.40 °C,–
CCN(CC)CCCCN1C(=O)C(O)=C(C(=O)c2ccc3c(c2)OCCO3)C1c1ccc(O)cc1 (stereo not drawn) [S12],74 µM,1.97 ± 0.35 °C,–
"CCN(CC)CCCN1C(=O)C(O)=C(C(=O)c2ccc3c(c2)OCCO3)C1c1ccc(F)cc1 (stereo not drawn) [compound 2, 2]",32 µM,2.38 ± 0.52 °C,–
"Cc1ccc(C2C(C(=O)c3ccc4c(c3)OCCO4)=C(O)C(=O)N2CCCN(C)C)cc1 (stereo not drawn) [compound 3, 3]",51 µM,2.34 ± 0.30 °C,–
"CN(C)CCCN1C(=O)C(O)=C(C(=O)c2ccc3c(c2)OCCO3)C1c1ccc(Br)cc1 (stereo not drawn) [compound 5, 5]",70 µM,1.49 ± 0.16 °C,–
"CCCCOc1ccc(C2C(C(=O)c3ccc4c(c3)OCCO4)=C(O)C(=O)N2CCCN(C)C)cc1 (stereo not drawn) [compound 8, 8]",69 µM,1.65 ± 0.24 °C,–
"CCN(CC)CCCN1C(=O)C(O)=C(C(=O)c2ccc3c(c2)CC(C)O3)C1c1ccc(O)cc1 (stereo not drawn) [compound 10, 10]",31 µM,2.67 ± 0.46 °C,–
"CCN(CC)CCCN1C(=O)C(O)=C(C(=O)c2ccc(OCc3ccc(C)cc3)cc2)C1c1ccc(O)cc1 (stereo not drawn) [compound 11, 11]",552 µM,0.07 ± 0.07 °C,–
"CCN(CC)CCCN1C(=O)C(O)=C(C(=O)c2ccc3c(c2)OCCO3)C1c1cccc(OC)c1 (stereo not drawn) [compound 12, 12]",11 µM,4.03 ± 0.39 °C,–
"CCN(CC)CCCN1C(=O)C(O)=C(C(=O)c2ccc3c(c2)OCCO3)C1c1cccc(O)c1 (stereo not drawn) [compound 13, 13]",24 µM,4.82 ± 0.49 °C,–
"CCN(CC)CCN1C(=O)C(O)=C(C(=O)c2ccc3c(c2)OCCO3)C1c1cccc(O)c1 (stereo not drawn) [compound 14, 14]",139 µM,1.40 ± 0.36 °C,–
"COCCCN1C(=O)C(O)=C(C(=O)c2ccc3c(c2)OCCO3)C1c1cccc(O)c1 (stereo not drawn) [compound 15, 15]",368 µM,0.78 ± 0.43 °C,–
"CN(C)CCCN1C(=O)C(O)=C(C(=O)c2ccc3c(c2)OCCO3)C1c1cccc(O)c1 (stereo not drawn) [compound 16, 16]",31 µM,–,–
CN(C)CCCN1C(=O)C(O)=C(C(=O)c2ccc3c(c2)OCCO3)C1c1cccc(O)c1 (stereo not drawn) [compound 16],–,2.96 ± 0.36 °C,–
"CN(C)CCN1C(=O)C(O)=C(C(=O)c2ccc3c(c2)OCCO3)C1c1cccc(O)c1 (stereo not drawn) [compound 17, 17]",274 µM,–,–
"CCN(CC)CCCN1C(=O)C(O)=C(C(=O)c2ccc3c(c2)OCCO3)C1c1ccc(N(C)C)cc1 (stereo not drawn) [compound 19, 19]",10 µM,–,–
CCN(CC)CCCN1C(=O)C(O)=C(C(=O)c2ccc3c(c2)OCCO3)C1c1ccc(N(C)C)cc1 (stereo not drawn) [compound 19],–,4.14 ± 0.12 °C,–
"CCN(CC)CCCN1C(=O)C(O)=C(C(=O)c2ccc3c(c2)OCCO3)C1c1ccc(C)cc1 (stereo not drawn) [compound 20, 20]",78 µM,–,–
CCN(CC)CCCN1C(=O)C(O)=C(C(=O)c2ccc3c(c2)OCCO3)C1c1ccc(C)cc1 (stereo not drawn) [compound 20],–,3.43 ± 0.66 °C,–
"CCN(CC)CCCN1C(=O)C(O)=C(C(=O)c2ccc3c(c2)OCCO3)C1c1ccncc1 (stereo not drawn) [compound 24, 24]",56 µM,–,–
CCN(CC)CCCN1C(=O)C(O)=C(C(=O)c2ccc3c(c2)OCCO3)C1c1ccncc1 (stereo not drawn) [compound 24],–,2.75 ± 0.44 °C,–
"O=C(C1=C(O)C(=O)N(Cc2ccccc2)C1c1ccc(O)cc1)c1ccc2c(c1)OCCO2 (stereo not drawn) [compound 26, 26]",30 µM,–,–
O=C(C1=C(O)C(=O)N(Cc2ccccc2)C1c1ccc(O)cc1)c1ccc2c(c1)OCCO2 (stereo not drawn) [compound 26],–,0.76 ± 0.33 °C,–

# Other lines, results leading:
IC50 [1],ΔTm ± SD (°C) [2],"IC50 ([1]; pH 7, 100 nM CFP-ARC, 200 nM YFP-peptide, TBM pocket)",Compound
250 µM,0.69 ± 0.30 °C,–,COc1cccc(C2C(C(=O)c3ccc4c(c3)OCCO4)=C(O)C(=O)N2CCCN2CCNCC2)c1 (stereo not drawn) [S1]
117 µM,1.42 ± 0.16 °C,–,"CCOc1ccc(C2C(C(=O)c3ccc4c(c3)OCCO4)=C(O)C(=O)N2CCCN2CCOCC2)cc1 (stereo not drawn) [compound 7, 7]"
81 µM,1.40 ± 0.18 °C,–,"CCCCOc1ccc(C2C(C(=O)c3ccc4c(c3)OCCO4)=C(O)C(=O)N2CCCN2CCOCC2)cc1 (stereo not drawn) [compound 9, 9]"
–,0.98 ± 0.32 °C,–,CN(C)CCN1C(=O)C(O)=C(C(=O)c2ccc3c(c2)OCCO3)C1c1cccc(O)c1 (stereo not drawn) [compound 17]
85 µM,–,–,"O=C(C1=C(O)C(=O)N(CCCN2CCOCC2)C1c1cccc(O)c1)c1ccc2c(c1)OCCO2 (stereo not drawn) [compound 18, 18]"
–,2.25 ± 0.48 °C,–,O=C(C1=C(O)C(=O)N(CCCN2CCOCC2)C1c1cccc(O)c1)c1ccc2c(c1)OCCO2 (stereo not drawn) [compound 18]
36 µM,–,–,"CCN(CC)CCCN1C(=O)C(O)=C(C(=O)c2ccc3c(c2)OCCO3)C1c1ccccc1 (stereo not drawn) [compound 21, 21]"
–,4.73 ± 0.29 °C,–,CCN(CC)CCCN1C(=O)C(O)=C(C(=O)c2ccc3c(c2)OCCO3)C1c1ccccc1 (stereo not drawn) [compound 21]
325 µM,–,–,"O=C(C1=C(O)C(=O)N(Cc2ccncc2)C1c1ccccc1)c1ccc2c(c1)OCCO2 (stereo not drawn) [compound 22, 22]"
–,0.48 ± 0.27 °C,–,O=C(C1=C(O)C(=O)N(Cc2ccncc2)C1c1ccccc1)c1ccc2c(c1)OCCO2 (stereo not drawn) [compound 22]
–,–,411 µM,"O=C(C1=C(O)C(=O)N(CCN2CCOCC2)C1c1ccccc1)c1ccc2c(c1)OCCO2 (stereo not drawn) [compound 23, 23]"
–,0.89 ± 0.33 °C,–,O=C(C1=C(O)C(=O)N(CCN2CCOCC2)C1c1ccccc1)c1ccc2c(c1)OCCO2 (stereo not drawn) [compound 23]
56 µM,–,–,"O=C(C1=C(O)C(=O)N(CCc2ccccc2)C1c1ccc(O)cc1)c1ccc2c(c1)OCCO2 (stereo not drawn) [compound 25, 25]"
–,1.80 ± 0.26 °C,–,O=C(C1=C(O)C(=O)N(CCc2ccccc2)C1c1ccc(O)cc1)c1ccc2c(c1)OCCO2 (stereo not drawn) [compound 25]
